Tested on: 4T1-luciferase cells
Assay: In situ model of breast cancer in nude mouse, lung metastasis by in vivo imaging (Example 7)
Design: species or system nude mice
Conditions: 20 mg/kg and 1 mg/kg tail vein, twice a day, 21 days; P<0.01
Protocol: 4) An in situ breast cancer model is constructed by in situ inoculating nude mice with 4T1 cells which are stably transfected with Luciferase, and the number of metastatic tumors on the lung is detected by in vivo imaging system. Such a model mimics the occurrence and metastasis of breast cancer.
The ability of (S)2-(4′-methyl-3′-nitrobenzoylamino)-3-phenylpropionic acid for inhibiting tumor metastasis in vivo was tested by in situ model of breast cancer in nude mouse.
1) Mice grouping: Nude female mice of SPF grade, 5 weeks old, 18˜22 g, 8 mice for each group;
2) The mother liquid of (S)2-(4′-methyl-3′-nitrobenzoylamino)-3-phenylpropionic acid (TCI04) for the dosage form administrated by intravenous injection was diluted to 2 mg/mL, 0.1 mg/mL by adding sterilized water. The dosage for administration in mice was as follows, high dosage of 20 mg/kg; low dosage of 1 mg/kg. […]
3) 4T1-luciferase cells in logarithmic growth phase were digested with 0.05% typsine for 1 min, after centrifugation at 1000 rpm for 5 min, the supernatant was discarded and the cells were resuspended and counted. […]
5) After the completion of the administration, the mice were detected by in vivo imaging system for the condition of tumor metastasis and immediately sacrificed; the lungs alone were detected by the in vivo imaging system for the light intensity to determine the number of tumor metastasis.

Q: `Cc1ccc(C(=O)N[C@@H](Cc2ccccc2)C(=O)O)cc1[N+](=O)[O-]` [(S)2-(4′-methyl-3′-nitrobenzoylamino)-3-phenylpropionic acid] was tested. Which “light intensity of the whole lung vs negative control” value did it give?
A: Its value is “significantly weaker than the negative control”.

From patent US10512627B2, “Anti-tumor compound and the medical use thereof” (Tianjin Medical University Cancer Institute and Hospital, priority 2014, dated 2019)
